Legend:
TKT = assay: 2D-PAGE proteomic analysis of treated A549 cells, TKT spot; assay type: cell-based, human; settings: A549, 25 µM, 24 h
Protocol: (§1) A549 cells were therefore treated with either vehicle (0.025% DMSO), or with 25 μM of andrographolide or ZAD-1, and at 24 h post-treatment, proteins were prepared and subjected to two-dimension polyacrylamide gel electrophoresis (2D-PAGE). The experiment was undertaken independently in triplicate and representative gels are shown Figure 5, with all replicates being shown in Supplementary Figure S12. […] All of these protein spots were cut from the gels and then subjected to in-gel tryptic digestion followed by mass spectrometry. MASCOT (Matrix Science Inc., Boston, MA, USA) search of the resultant masses identified 4 proteins (Table 3), namely heat shock protein 70 kDa 1A (HSPA1A), phosphoglycerate kinase 1 (PGK1), transketolase (TKT) and nuclear transport protein of GTP-binding nuclear protein Ran (Ran).
(§2) 2D-PAGE and mass spectroscopic identification of differentially expressed spots was undertaken essentially as previously described. […] Image data were analyzed using Image Master™ 2D Platinum software version 7.0 (GenBio, Geneva, Switzerland). Each spot was evaluated on intensity, volume and area. […] After tryptic in-gel digestion, peptide masses were determined by LC-MS/MS using SYNAPT high definition MS (HDMS) (Waters Corp., Milford, MA, USA).

[1] = MTT cytotoxicity assay in Vero cells; assay type: cell-based; settings: African green monkey, Vero cells (monkey kidney), 24 h post-treatment
Protocol: (§3) Cytotoxicity of each compound towards cells for four selected cell lines in the range of 1 to 500 µM was evaluated using the MTT (3-(4,5-dimethylthiazol-2-yl)-2,5-diphenyltetrazolium bromide) assay at 24 h post-treatment, in parallel with control and vehicle-treated cells (0.1% dimethyl sulfoxide (DMSO)). The 50% cytotoxic concentration (CC50) values calculated from the dose-response curve (Supplementary Figures S2–S5) are shown in Table 1. Overall, a range of cytotoxicities were seen from the four compounds across the […]. The most cytotoxic combination was ZAD-1 and BHK-21 cells, while the least cytotoxic combination was andrographolide and BHK-21 cells (Table 1).
(§4) A549 cells were cultured in ninety-six-well tissue culture plates under standard conditions until the cells reached 90% confluence. The cell culture medium was removed and then cells were incubated with various concentrations of andrographolide (1–100 μM) diluted in complete medium with FBS prior to being cultured for 24 h under standard conditions before analysis using either the Vybrant MTT Cell proliferation assay kit (V13154, Invitrogen) or the alamarBlue (Thermo Fischer Scientific, Waltham, MA, USA) assay kit according to the manufacturers recommendations. Values were determined from 8 (MTT assay) or 3 (alamarBlue) independent replicates. Negative controls (only media and media with 0.1% DMSO) and positive controls (5% DMSO) were included. To determine cell number, cell cultures were trypsinized by the addition of 0.25% Trypsin/0.1% ethylelediaminetetraacetic acid (EDTA) for 3 min and then cell suspensions were diluted with 0.4% trypan blue solution. Cells were counted using a hemocytometer. Cell morphology was additionally observed under an inverted microscope after 24 h treatment with various concentrations of each compound.
Figu re S3. Cytotoxicity of ZAD -1 (A), ZA D-2 (B), ZA D-3 (C), and andro grapholide (D) to Ve r o (monkey kidney) cells. Ve r o cells were incubated with various concentrations of each compound for 24 hrs followed by MTT cell viability assay. The experiment was undertaken independently in 4 replicates. DMSO at the same concentrations was used as a control. 10% ethanol, PBS, and milli- Q water were used as a positive control of cell death. The bars show mean ± SD. […]

[2] = MTT cytotoxicity assay in HEK293T/17 cells; assay type: cell-based; settings: human, HEK293T/17 cells (human embryonic kidney), 24 h post-treatment
Protocol: as §3, §4
Figu re S5. Cytotoxicity of ZAD -1 (A), ZA D-2 (B), ZA D-3 (C), and andro grapholide (D) to HEK293T/17 (human embryonic kidney) cells.
HEK293T/17 cells were incubated with various concentrations of each compound for 24 hrs followed by MTT cell viability assay. The experiment was undertaken independently in 4 replicates. DMSO at the same concentrations was used as a control.
10% ethanol, PBS, and milli- Q water were used as a positive control of cell death. […]

Ran = assay: 2D-PAGE proteomic analysis of treated A549 cells, Ran spot; assay type: cell-based, human; settings: A549, 25 µM, 24 h
Protocol: as §1, §2

With `C=C1CC[C@@H]2[C@](C)(CO)[C@H](O)CC[C@@]2(C)[C@@H]1C/C=C1/C(=O)OC[C@H]1O` [Andrographolide] the “Intensity Level, spot 2 TKT” value (TKT) was 1452.51, the CC50 at 24 h [1] was 469 ± 73 µM and the CC50 at 24 h [2] was 294 ± 96 µM. The “Intensity Level, spot 4 Ran” value (Ran) was 698.483.
For `C=C1CC[C@@H]2[C@]3(C)COC(C)(C)O[C@@H]3CC[C@@]2(C)[C@@H]1C/C=C1/C(=O)OC[C@@H]1Oc1c(Cl)cc(Cl)c2ccc(C)nc12` [ZAD-1], the “Intensity Level, spot 2 TKT” value (TKT) was 523.514, the CC50 at 24 h [1] was 510 ± 53 µM and the CC50 at 24 h [2] was 149 ± 40 µM. For the same compound, the “Intensity Level, spot 4 Ran” value (Ran) was 2096.79.

Source: article PMC7662321, “Andrographolide and Its 14-Aryloxy Analogues Inhibit Zika and Dengue Virus Infection” (Molecules, 2020)
